Literature values as cited in publication PMC11010885, “Functional Analysis and Tissue-Specific Expression of Calcitonin and CGRP with RAMP-Modulated Receptors CTR and CLR in Chickens” (Animals : an Open Access Journal from MDPI, 2024).

Tested on: RAMP1- and RAMP3-derived amylin receptors
Settings: ref [51],[53]; cited from earlier work
Protocol: In mammals, CTR functions as a receptor for three distinct hormones: CT, CGRP, and amylin (not explored in this study). The specific affinity spectrum is determined by its co-expression with RAMPs. Although CTR alone is a receptor for CT that is involved in bone homeostasis, CTRs in complex with RAMP1–3 are high-affinity receptors for amylin, a peptide involved in the regulation of food intake. […] The CTR + RAMP1 complex is a ...

Row | Substance | affinity
1 | human CT: human CT, cited from the literature | low affinity
2 | rat amylin: rat amylin, cited from the literature | moderate affinity
